According to the supplement of paper PMC8882468:

How the values were obtained:
Experiment in all cases: CTG-3D luminescence at 96 h relative to day-0 seeding control (ratio to day 0); higher = more growth / less cytotoxicity; PDxO 3D drug screen, 96 h, CTG-3D normalised to day-0 seeding control.
HCI-001 = test system: HCI-001 (organoid from a triple-negative breast cancer xenograft)
HCI-002 = test system: HCI-002 (organoid from a triple-negative breast cancer xenograft)
HCI-012 = test system: HCI-012 (organoid from a breast cancer xenograft)
HCI-024 = test system: HCI-024 (organoid from a breast cancer xenograft)

CC1(C)CCC(c2ccc(Cl)cc2)=C(CN2CCN(c3ccc(C(=O)NS(=O)(=O)c4ccc(N[C@H](CCN5CCOCC5)CSc5ccccc5)c(S(=O)(=O)C(F)(F)F)c4)cc3)CC2)C1 [navitoclax]
CTG-3D luminescence at 96 h
Conditions	12.5 pM	0.00025 µM	0.005 µM	0.1 µM	1 µM	10 µM	100 µM	625 fM
HCI-001, days in culture: 240	1.51	1.07	0.955	1.53	1.1	0.369	0.0412	1.73
HCI-001, days in culture: 260	2.66	1.09	1.83	1.92	1.58	0.642	0.0822	1.64
HCI-001, days in culture: 269	1.8	1.73	1.37	1.38	0.942	0.889	0.124	1.67
HCI-001, days in culture: 327	2.11	1.59	2.17	1.48	0.963	0.0556	-0.168	2.04
HCI-001, days in culture: 346	1.64	1.22	1.38	1.24	1.3	0.577	0.00509	1.3
HCI-001, days in culture: 364	1.67	1.16	1.61	1.17	1.17	0.802	0.00601	1.63
HCI-002, days in culture: 62	3.12	2.9	3.78	2.92	2.42	1.07	0.00133	3.47
HCI-002, days in culture: 82	3.88	4.28	2.86	2.91	2.86	1.36	0.00885	3.44
HCI-002, days in culture: 91	3.48	2.91	2.21	2.3	1.97	1.73	0.00844	3.14
HCI-002, days in culture: 191	3.36	3.04	3.27	3.13	2.63	1.29	-0.105	3.4
HCI-002, days in culture: 209	2.83	3.07	2.6	2.13	1.85	1.18	-0.00717	2.97
HCI-002, days in culture: 227	5.11	5.2	4.65	4.75	3.73	3.27	0.0214	5.74
HCI-012, days in culture: 143	1.69	2.26	2.2	2.7	2.07	2.21	0.239	1.81
HCI-012, days in culture: 162	2.02	2.3	2.33	2.56	2.17	2.21	0.134	2.94
HCI-012, days in culture: 201	3.09	2.12	1.75	1.93	2.2	0.271	-0.19	1.96
HCI-024, days in culture: 105	1.44	1.51	1.24	1.47	1.01	1.1	0.182	1.59
HCI-024, days in culture: 122	1.5	2.32	1.85	1.88	1.6	1.52	0.266	2.7
HCI-024, days in culture: 163	1.88	2.19	1.74	2.8	1.99	1.74	0.357	2.54

NC(=O)c1cccc2cn(-c3ccc([C@@H]4CCCNC4)cc3)nc12 [niraparib]
CTG-3D luminescence at 96 h
Conditions	12.5 pM	0.00025 µM	0.005 µM	0.1 µM	1 µM	10 µM	100 µM	625 fM
HCI-001, days in culture: 240	1.8	0.913	0.843	1.05	1.61	1.03	-0.07	1.32
HCI-001, days in culture: 260	2.65	1.11	2.11	1.64	1.53	1.92	-0.0335	1.4
HCI-001, days in culture: 269	1.85	1.93	1.42	1.32	1.1	1.23	-0.00141	1.67
HCI-001, days in culture: 327	1.97	1.95	2.3	1.8	1.66	1.28	-0.186	2.27
HCI-001, days in culture: 346	1.69	1.24	1.24	1.4	1.51	1.1	-0.143	1.28
HCI-001, days in culture: 364	1.81	1.28	1.69	1.33	1.33	1.2	-0.0638	1.67
HCI-002, days in culture: 62	3.51	3	3.42	2.62	1.36	0.533	-0.0877	3.34
HCI-002, days in culture: 82	3.5	3.51	2.69	2.16	1.29	0.381	-0.026	2.77
HCI-002, days in culture: 91	2.87	2.3	1.8	1.74	1.11	0.377	-0.0114	2.66
HCI-002, days in culture: 191	3.37	2.98	3.35	2.51	1.99	0.811	-0.139	3.21
HCI-002, days in culture: 209	2.84	2.96	2.54	1.96	1.18	0.302	-0.0818	2.86
HCI-002, days in culture: 227	4.63	5.21	4.64	3.79	2.08	0.87	-0.0133	5.51
HCI-012, days in culture: 143	2.27	2.44	2.4	2.56	1.52	0.467	-0.00164	1.73
HCI-012, days in culture: 162	2.37	2.45	2.2	2.6	0.841	0.415	-0.00213	3.12
HCI-012, days in culture: 201	3.14	2.4	1.89	1.81	1.95	0.307	-0.207	1.71
HCI-024, days in culture: 105	1.48	1.61	1.14	1.43	1.44	1.27	0.00247	1.56
HCI-024, days in culture: 122	2.12	2.38	2.08	1.71	1.88	1.29	0.00108	2.15
HCI-024, days in culture: 163	1.73	1.86	1.82	2.37	1.78	1.17	0.00351	2.44
